Source: PubChem BioAssay AID1259411 (Chemical Carcinogenesis Research Information System (CCRIS), 2018)
Calls of active or inactive are those of the source. The rule behind the calls is not given here.

Test system: rodent carcinogenicity bioassays, tumor incidence
Test: CCRIS carcinogenicity studies
Outline: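 Archive of carcinogenicity, mutagenicity, tumor promotion and tumor inhibition results drawn from journals, NCI reports and other sources, expert-reviewed; covers 1985-2011 and is no longer updated.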

SMILES: CCN(N=O)C(=O)NC
- carcinogen call (Species: RAT, Strain/Sex: F344/FEMALE, Route: GAVAGE, Dose: 0, 20, 40 UMOL/WK IN CORN OIL/ETHYL ACETATE (2: 1) FOR 30 WK FOR TOTAL DOSES OF 0, 0.6, 1.2 MMOL (STUDY DURATION: LIFETI, Dose: 0, 20, 40 UMOL/WK IN CORN OIL/ETHYL ACETATE (2: 1) FOR 30 WK FOR TOTAL DOSES OF 0, 0.6, 1.2 MMOL (STUDY DURATION: LIFETI, Tumor Site: Type of Lesion: MAMMARY GLAND: TUMOR, UTERUS: TUMOR): active; positive
- carcinogen call (Species: RAT, Strain/Sex: F344/FEMALE, Route: ORAL, Dose: 0, 20, 40 UMOL/WK IN DRINKING WATER FOR 30 WK FOR TOTAL DOSES OF 0, 0.6, 1.2 MMOL (STUDY DURATION: LIFETIME), Dose: 0, 20, 40 UMOL/WK IN DRINKING WATER FOR 30 WK FOR TOTAL DOSES OF 0, 0.6, 1.2 MMOL (STUDY DURATION: LIFETIME), Tumor Site: Type of Lesion: LUNG: TUMOR, MAMMARY GLAND: TUMOR, UTERUS: TUMOR, THYROID: FOLLICULAR CELL TUMOR, NERVOUS SYSTEM: TUMOR, Tumor Site: Type of Lesion: LUNG: TUMOR, MAMMARY GLAND: TUMOR, UTERUS: TUMOR, THYROID: FOLLICULAR CELL TUMOR, NERVOUS SYSTEM: TUMOR): active; positive
- carcinogen call (Species: RAT, Strain/Sex: F344/MALE, Route: GAVAGE, Dose: 0, 20, 40 UMOL/WK IN CORN OIL/ETHYL ACETATE (2: 1) FOR 30 WK FOR TOTAL DOSES OF 0, 0.6, 1.2 MMOL (STUDY DURATION: LIFETI, Dose: 0, 20, 40 UMOL/WK IN CORN OIL/ETHYL ACETATE (2: 1) FOR 30 WK FOR TOTAL DOSES OF 0, 0.6, 1.2 MMOL (STUDY DURATION: LIFETI, Tumor Site: Type of Lesion: LUNG: TUMOR, TESTIS: MESOTHELIOMA, ZYMBAL GLAND: TUMOR, Tumor Site: Type of Lesion: LUNG: TUMOR, TESTIS: MESOTHELIOMA, ZYMBAL GLAND: TUMOR): active; positive
- carcinogen call (Species: RAT, Strain/Sex: F344/MALE, Route: ORAL, Dose: 0, 20, 40 UMOL/WK IN DRINKING WATER FOR 30 WK FOR TOTAL DOSES OF 0, 0.6, 1.2 MMOL (STUDY DURATION: LIFETIME), Dose: 0, 20, 40 UMOL/WK IN DRINKING WATER FOR 30 WK FOR TOTAL DOSES OF 0, 0.6, 1.2 MMOL (STUDY DURATION: LIFETIME), Tumor Site: Type of Lesion: LUNG: TUMOR, THYROID: FOLLICULAR CELL TUMOR, TESTIS: MESOTHELIOMA, NERVOUS SYSTEM: TUMOR, ZYMBAL GLAND: TUMOR, COLON: TU, Tumor Site: Type of Lesion: LUNG: TUMOR, THYROID: FOLLICULAR CELL TUMOR, TESTIS: MESOTHELIOMA, NERVOUS SYSTEM: TUMOR, ZYMBAL GLAND: TUMOR, COLON: TU): active; positive

SMILES: CN(C)C(=O)Nc1ccc(Cl)cc1
- carcinogen call (Species: MOUSE, Strain/Sex: B6C3F1/FEMALE, Route: ORAL, Dose: 0, 5000, 10000 PPM IN DIET FOR 103 WK (STUDY DURATION: 107 WK), Dose: 0, 5000, 10000 PPM IN DIET FOR 103 WK (STUDY DURATION: 107 WK)): inactive; negative
- carcinogen call (Species: MOUSE, Strain/Sex: B6C3F1/MALE, Route: ORAL, Dose: 0, 5000, 10000 PPM IN DIET FOR 103 WK (STUDY DURATION: 107 WK), Dose: 0, 5000, 10000 PPM IN DIET FOR 103 WK (STUDY DURATION: 107 WK)): inactive; negative
- carcinogen call (Species: RAT, Strain/Sex: F344/FEMALE, Route: ORAL, Dose: 0, 750, 1500 PPM IN DIET FOR 103 WK (STUDY DURATION: 106 WK), Dose: 0, 750, 1500 PPM IN DIET FOR 103 WK (STUDY DURATION: 106 WK)): inactive; negative
- carcinogen call (Species: RAT, Strain/Sex: F344/MALE, Route: ORAL, Dose: 0, 750, 1500 PPM IN DIET FOR 103 WK (STUDY DURATION: 106 WK), Dose: 0, 750, 1500 PPM IN DIET FOR 103 WK (STUDY DURATION: 106 WK), Tumor Site: Type of Lesion: LIVER: NEOPLASTIC NODULE, NEOPLASTIC NODULE OR CARCINOMA, KIDNEY: TUBULAR CELL ADENOMA, TUBULAR CELL ADENOCARCINOMA): active; positive

SMILES: Cc1ccc(N)cc1N
- carcinogen call (Species: MOUSE, Strain/Sex: B6C3F1/FEMALE, Route: ORAL, Dose: 0, 100, 200 PPM IN DIET FOR 101 WK, Dose: 0, 100, 200 PPM IN DIET FOR 101 WK, Tumor Site: Type of Lesion: HEMATOPOIETIC SYSTEM (LEUKEMIA), LYMPHATIC SYSTEM: LYMPHOMA, LIVER: HEPATOCELLULAR CARCINOMA, Tumor Site: Type of Lesion: HEMATOPOIETIC SYSTEM (LEUKEMIA), LYMPHATIC SYSTEM: LYMPHOMA, LIVER: HEPATOCELLULAR CARCINOMA): active; positive
- carcinogen call (Species: MOUSE, Strain/Sex: B6C3F1/MALE, Route: ORAL, Dose: 0, 100, 200 PPM IN DIET FOR 101 WK, Dose: 0, 100, 200 PPM IN DIET FOR 101 WK): inactive; negative
- carcinogen call (Species: RAT, Strain/Sex: F344/FEMALE, Route: ORAL, Dose: 0, 79, 171 PPM TWA, IN DIET FOR 84-103 WK, Dose: 0, 79, 171 PPM TWA, IN DIET FOR 84-103 WK, Tumor Site: Type of Lesion: INTEGUMENTARY SYSTEM (SUBCUTANEOUS TISSUE): FIBROMA, FIBROSARCOMA, LIVER: HEPATOCELLULAR CARCINOMA OR NEOPLASTIC NODULE;, Tumor Site: Type of Lesion: INTEGUMENTARY SYSTEM (SUBCUTANEOUS TISSUE): FIBROMA, FIBROSARCOMA, LIVER: HEPATOCELLULAR CARCINOMA OR NEOPLASTIC NODULE): active; positive
- carcinogen call (Species: RAT, Strain/Sex: F344/MALE, Route: ORAL, Dose: 0, 79, 176 PPM TWA, IN DIET FOR 79-103 WK, Dose: 0, 79, 176 PPM TWA, IN DIET FOR 79-103 WK, Tumor Site: Type of Lesion: INTEGUMENTARY SYSTEM (SUBCUTANEOUS TISSUE): SQUAMOUS CELL CARCINOMA, FIBROMA, LIPOMA, LIVER: HEPATOCELLULAR CARCINOMA OR): active; positive

SMILES: CC(I)C1OCC(CO)O1 (stereo not drawn)
- carcinogen call (Species: MOUSE, Strain/Sex: B6C3F1/FEMALE, Route: GAVAGE, Dose: 0, 62, 125 MG/KG IN WATER 5 D/WK FOR 103 WK (STUDY DURATION: 106 WK), Dose: 0, 62, 125 MG/KG IN WATER 5 D/WK FOR 103 WK (STUDY DURATION: 106 WK), Tumor Site: Type of Lesion: FORESTOMACH: SQUAMOUS CELL PAPILLOMA, ANTERIOR PITUTARY GLAND: ADENOMA, HARDERIAN GLAND: ADENOMA, ADENOMA OR CARCINOMA, Tumor Site: Type of Lesion: FORESTOMACH: SQUAMOUS CELL PAPILLOMA, ANTERIOR PITUTARY GLAND: ADENOMA, HARDERIAN GLAND: ADENOMA, ADENOMA OR CARCINOMA): active; positive
- carcinogen call (Species: MOUSE, Strain/Sex: B6C3F1/MALE, Route: GAVAGE, Dose: 0, 125, 250 MG/KG IN WATER 5 D/WK FOR 103 WK (STUDY DURATION: 106 WK), Dose: 0, 125, 250 MG/KG IN WATER 5 D/WK FOR 103 WK (STUDY DURATION: 106 WK)): inactive; negative
- carcinogen call (Species: RAT, Strain/Sex: F344/FEMALE, Route: GAVAGE, Dose: 0, 62, 125 MG/KG IN WATER 5 D/WK FOR 103 WK (STUDY DURATION: 105 WK), Dose: 0, 62, 125 MG/KG IN WATER 5 D/WK FOR 103 WK (STUDY DURATION: 105 WK)): inactive; negative
- carcinogen call (Species: RAT, Strain/Sex: F344/MALE, Route: GAVAGE, Dose: 0, 125, 250 MG/KG IN WATER 5 D/WK FOR 103 WK (STUDY DURATION: 105 WK), Dose: 0, 125, 250 MG/KG IN WATER 5 D/WK FOR 103 WK (STUDY DURATION: 105 WK), Tumor Site: Type of Lesion: HEMATOPOIETIC SYSTEM: MONONUCLEAR CELL LEUKEMIA, THYROID GLAND: FOLLICULAR CELL CARCINOMA): active; positive

SMILES: ClC[C@H]1O[C@@H]1Cl
- carcinogen call (Species: MOUSE, Strain/Sex: ICR/FEMALE, Route: DERMAL, Dose: 10 MG IN 0.1 ML ACETONE 3/WK FOR LIFE, Tumor Site: Type of Lesion: INTEGUMENTARY SYSTEM (SKIN): PAPILLOMA, SQUAMOUS CELL CARCINOMA): active; positive
- carcinogen call (Species: MOUSE, Strain/Sex: ICR/FEMALE, Route: SUBCUTANEOUS, Dose: 500 UG IN 0.05 ML TRICAPRYLIN 1/WK FOR LIFE, Tumor Site: Type of Lesion: INJECTION SITE: FIBROSARCOMA): active; positive

SMILES: ONc1ccc2ccccc2c1
- carcinogen call (Species: DOG, Strain/Sex: BEAGLE, Route: INTRAVESICULAR, Dose: 5 MG IN DMSO EVERY TWO WK FOR 30 MO, Tumor Site: Type of Lesion: URINARY BLADDER: PAPILLARY TRANSITIONAL CELL CARCINOMA (INVASIVE)): active; positive
- carcinogen call (Species: MOUSE, Strain/Sex: BALB, Route: SUBCUTANEOUS, Dose: 100 UG IN AQUEOUS GELATIN 1/D FOR 5 D, Tumor Site: Type of Lesion: LUNG: ADENOMA): active; positive
- carcinogen call (Species: MOUSE, Strain/Sex: SWISS/FEMALE, Route: SUBCUTANEOUS, Dose: 100 UG IN GELATIN ON D 1, 3 AND 5 OF LIFE, Tumor Site: Type of Lesion: LUNG: ADENOMA, CARCINOMA): active; positive
- carcinogen call (Species: MOUSE, Strain/Sex: SWISS/MALE, Route: SUBCUTANEOUS, Dose: 100 UG IN GELATIN ON D 1, 3 AND 5 OF LIFE, Tumor Site: Type of Lesion: LIVER: HEPATOMA): active; positive
- carcinogen call (Species: RAT, Strain/Sex: STRAIN-CB/MALE, Route: INTRAPERITONEAL, Dose: 50 MG/KG IN ARACHIS OIL 2/WK FOR 3 MO, Tumor Site: Type of Lesion: PERITONEAL CAVITY: SARCOMA, CARCINOMA): active; positive
